Laboratory results published in US10196359B2, “2-alkyloxy benzene formyl arylamine compound and pharmaceutical use thereof” (FUDAN UNIVERSITY, priority 2014, dated 2019).
pIC50: −log10 of the molar value. Like-named read-outs stand apart in the source and are kept apart here.

Target: T1, Sphingomyelin Synthase 2 (SMS2) (Homo sapiens, UniProt Q8NHU3)
T1 construct: made in house; used as homogenate
T1 sequence (Q8NHU3 1-365): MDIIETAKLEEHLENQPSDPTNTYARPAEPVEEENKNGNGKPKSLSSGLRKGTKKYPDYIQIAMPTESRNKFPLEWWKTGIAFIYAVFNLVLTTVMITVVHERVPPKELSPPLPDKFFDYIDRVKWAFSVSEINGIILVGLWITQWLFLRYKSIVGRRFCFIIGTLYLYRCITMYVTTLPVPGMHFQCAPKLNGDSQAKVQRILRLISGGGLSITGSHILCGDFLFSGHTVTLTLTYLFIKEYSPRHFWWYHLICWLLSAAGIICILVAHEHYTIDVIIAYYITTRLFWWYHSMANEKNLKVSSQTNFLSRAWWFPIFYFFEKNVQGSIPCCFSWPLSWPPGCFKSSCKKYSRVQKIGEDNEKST
Test: In vitro inhibition of sphingomyelin synthase 2, HPLC fluorogenic quantitative detecting method (C6-NBD-ceramide to C6-NBD-SM, SMS2 high-expressed insect cell homogenate)
Type: biochemical
Conditions: for pIC50: read-out: SMS2 Median Inhibitory Concentration IC50; for inhibition at 5 µM / inhibition at 50 µM / inhibition at 10 µM: read-out: inhibition rate
Description: The second aim of the present invention is to show the use of 2-alkoxy benzene formyl arylamines in preparing SMS small-molecule inhibitors. This invention evaluate SMS inhibitory activity of 2-alkoxy benzene formyl arylamines as scheme I through HPLC fluorogenic quantitative detecting method reported (Xiaodong Deng; Hong Sun; et al. Analytical Letters, 2012, 45:12, 1581-1589), which can make it possible to calculate the catalytic activity difference of SMS treated with inhibitors or not through content changes of NBD-ceramide and NBD-sphingomyelin.
9. The organic solvents were purchased from Shanghai Sinopharm Reagent Company; methanol is of HPLC grade; water is ultrapure water filtrated by Milli-Q pump and deionized and ultrafiltrated by 0.22 μm ultrafiltration membrane. Other biological supplies are purchased in domestic companies. 10. Preparation of SMS homogenate extraction buffer (Buffer1): (50 mM Tris hydrochloride, pH 7.4, 5% anhydrous sucrose, 1 mM ethylenediaminetetraacetic acid) 1.2114 g tris(hydroxymethyl)aminomethane hydrochloride (Tris-HCl) was dissolved in 100 ml distilled water. Then 84 ml 0.1 mol/L hydrochloric acid was added. Constant volume to 200 ml. Finally, 10 g sucrose and 58.45 mg EDTA were dissolved in the mixture. 11. Preparation of SMS test buffer […]: (100 mM Hepes, 30 mM MnCl2, 3% fatty acid free BSA): 1.1916 g 4-(2-hydroxyethyl)-1-peperazineethanesulfonic acid (Hepes), 0.2969 g MnCl2.4H2O and 0.3 g fatty acid free bovine serum albumin were dissolved in distilled water then constant volume to 50 ml. 12. Preparation of under tested compound solution: To each accurate weighed compound for 1˜2 mg, an appropriate amount of DMSO was added to formulate a stock solution of 6 mM precisely. To a certain volume of the DMSO stock solution of the test compound, the appropriate volume of DMSO was added to dilute the solution to the desired concentration. 13. SMS2 high-expressed insect cell homogenate was prepared by Xu Yanhui group from Institutes of Biomedical Sciences, Fudan University. Part 1 Activity Assay for Inhibition of 2-Alkoxy-Benzoyl Aromatic Amines to Sphingomyelin Synthase 2
250 μL tri-distilled water, 30 μL Buffer2, 4 μL SMS2 high-expressed insect cell homogenate (total protein content is 0.5 μg/μL) and 10 μL DMSO or DMSO solution of under tested compound were added to 1.5 mL eppendorf tube, vortex mixed for 30 seconds and then incubated in a 37° C. water bath for 0.5 h. 3 μL ethanol solution of DMPC (40 mM) and 3 μL ethanol solution of C6-NBD-Ceramide (1.16 mM) were added, vortex mixed for 30 seconds, and then incubate in a 37° C. water bath for 2.0 hours. To it 600 μL anhydrous ethanol was added vortex mixed for 1 minute and centrifuged 10 minutes in 10000 rpm and 600 μL supernatant was taken out and stored at 4° C. for HPLC analysis.
Using the same HPLC fluorogenic quantitative detecting method as reference (Xiaodong Deng; Hong Sun; et al. Analytical Letters, 2012, 45:12, 1581-1589) to analysize samples obtained above. Analysize and record peak areas of C6-NBD-SM (Asm) and C6-NBD-Ceramide (Acer) of each sample from blank group, positive control group (compound D2) and under tested compound group. The data were parallelly determined for 3 times. Calculate inhibition rate from the formula below: […]
The DMSO stock solution of under tested compound (6 mM) was diluted stepwise into five concentration gradient. 10 μL solution of each concentration was added into the trial system to prepare samples with the method mentioned in the first step of application case 12. The Asm values of the five concentration solution of tested compound were measured, and the inhibition rate under the five concentration were calculated and fitted to obtain median inhibitory concentration (IC50). Each compound was measured three parallel groups. SMS2 median inhibitory concentration of Scheme I-1˜I-60 are listed below in Table 1: […]

[1] = five concentrations, three parallel groups, experimental value

Question: What does the source list for “2-(2-cyano-benzyloxy)-N-(pyridin-3-yl) benzamide [Scheme I-6]”?
Answer: inhibition rate (at 50 μM): 50.0%; pIC50 [1]: 4.50

Question: With “2-(3-bromo-benzyloxy)-N-(pyridin-3-yl) benzamide [Scheme I-8]” as the compound, how does the inhibition rate (at 50 μM) read?
Answer: 67.1%

Question: And the pIC50 [1]?
Answer: < 4.30

Question: With “2-(3-cyano-benzyloxy)-N-(pyridin-3-yl) benzamide [Scheme I-4]” as the compound, how does the inhibition rate (at 50 μM) read?
Answer: 66.0%

Question: What about the pIC50 [1] of the same compound?
Answer: 4.22

Question: How did the inhibition rate (at 50 μM) turn out when “2-(4-bromo-benzyloxy)-N-(pyridin-3-yl) benzamide [Scheme I-9]” was run?
Answer: 14.7%

Question: What about the pIC50 [1] of the same compound?
Answer: < 4.00

Question: For “2-((2,5-dichloro) benzyloxy)-N-(pyridin-3-yl) benzamide [Scheme I-33]”, which inhibition rate (at 10 μM) is on record?
Answer: 87.9%

Question: And the pIC50 [1]?
Answer: 6.00

Question: “2-((2,5-dimethoxy) benzyloxy)-N-(pyridin-3-yl) benzamide [Scheme I-25]” was tested. Which inhibition rate (at 10 μM) did it give?
Answer: 78.9%

Question: What about the pIC50 [1] of the same compound?
Answer: 5.55

Question: With “2-((2,6-dimethyl) benzyloxy)-N-(pyridin-3-yl) benzamide [Scheme I-29]” as the compound, how does the inhibition rate (at 10 μM) read?
Answer: 88.8%

Question: And the pIC50 [1]?
Answer: 6.05

Question: “2-((2-benzyloxy) benzyloxy)-N-(pyridin-3-yl) benzamide [Scheme I-26]” was tested. Which inhibition rate (at 10 μM) did it give?
Answer: 76.9%

Question: What about the pIC50 [1] of the same compound?
Answer: 5.66

Question: With “2-((2-chloro-5-fluoro) benzyloxy)-N-(pyridin-3-yl) benzamide [Scheme I-16]” as the compound, how does the inhibition rate (at 5 μM) read?
Answer: 75.7%

Question: And the pIC50 [1]?
Answer: 6.15

Question: Which inhibition rate (at 10 μM) does the source give for “2-((2-ethoxy) benzyloxy)-N-(pyridin-3-yl) benzamide [Scheme I-30]” here?
Answer: 86.3%

Question: What about the pIC50 [1] of the same compound?
Answer: 5.92

Question: For “2-((2-ethyl) benzyloxy)-N-(pyridin-3-yl) benzamide [Scheme I-27]”, which inhibition rate (at 5 μM) is on record?
Answer: 78.4%

Question: And the pIC50 [1]?
Answer: 6.05

Question: Which inhibition rate (at 10 μM) does the source give for “2-((2-methoxy-5-chloro) benzyloxy)-N-(pyridin-3-yl) benzamide [Scheme I-31]” here?
Answer: 92.4%

Question: What about the pIC50 [1] of the same compound?
Answer: 6.15

Question: How did the inhibition rate (at 50 μM) turn out when “2-((2-nitro) benzyloxy)-N-(pyridin-3-yl) benzamide [Scheme I-12]” was run?
Answer: 35.5%

Question: What about the pIC50 [1] of the same compound?
Answer: < 4.30

Question: How did the inhibition rate (at 10 μM) turn out when “2-((3-methoxy) benzyloxy)-N-(pyridin-3-yl) benzamide [Scheme I-23]” was run?
Answer: 59.8%

Question: And the pIC50 [1]?
Answer: 5.24

Question: Which results are given for “2-((4-cyano) benzyloxy)-N-(pyridin-3-yl) benzamide [Scheme I-15]”?
Answer: inhibition rate (at 50 μM): 15.0%; pIC50 [1]: < 4.00

Question: What does the source list for “2-((4-ethyl) benzyloxy)-N-(pyridin-3-yl) benzamide [Scheme I-28]”?
Answer: inhibition rate (at 10 μM): 10.1%; pIC50 [1]: < 4.00

Question: What does the source list for “2-((4-methyl) benzyloxy)-N-(pyridin-3-yl) benzamide [Scheme I-14]”?
Answer: inhibition rate (at 50 μM): 69.0%; pIC50 [1]: < 4.60

Question: For “2-((4-nitro) benzyloxy)-N-(pyridin-3-yl) benzamide [Scheme I-13]”, which inhibition rate (at 50 μM) is on record?
Answer: 11.8%

Question: And the pIC50 [1]?
Answer: < 4.00

Question: What does the source list for “2-((4-trifluoromethyl) benzyloxy)-N-(pyridin-3-yl) benzamide [Scheme I-20]”?
Answer: inhibition rate (at 10 μM): 3.9%; pIC50 [1]: < 4.00

Question: Which results are given for “2-((5-chloro-2-heptyloxy) benzyloxy)-N-(pyridin-3-yl) benzamide [Scheme I-40]”?
Answer: inhibition rate (at 5 μM): 87.1%; pIC50 [1]: 6.40

Question: Which results are given for “2-((5-chloro-hexyloxy) benzyloxy)-N-(pyridin-3-yl) benzamide [Scheme I-39]”?
Answer: inhibition rate (at 5 μM): 85.5%; pIC50 [1]: 6.30

Question: For “2-((5-fluoro-2-methyl) benzyloxy)-N-(pyridin-3-yl) benzamide [Scheme I-21]”, which inhibition rate (at 10 μM) is on record?
Answer: 84.7%

Question: And the pIC50 [1]?
Answer: 6.15

Question: `O=C(Nc1cccnc1)c1ccccc1OCc1ccccc1F` [Scheme I-1, 2-(2-fluoro-benzyloxy)-N-(pyridin-3-yl) benzamide] was tested. Which pIC50 did it give?
Answer: 5.46

Question: What about the inhibition at 5 µM of the same compound?
Answer: 53.8%

Question: With `O=C(Nc1cccnc1)c1ccccc1OCc1cccc(F)c1` [Scheme I-2, 2-(3-fluoro-benzyloxy)-N-(pyridin-3-yl) benzamide] as the compound, how does the pIC50 read?
Answer: 5.80

Question: And the inhibition at 5 µM?
Answer: 69.3%

Question: What does the source list for `O=C(Nc1cccnc1)c1ccccc1OCc1cccc([N+](=O)[O-])c1` [Scheme I-3, 2-(3-nitro-benzyloxy)-N-(pyridin-3-yl) benzamide]?
Answer: inhibition at 50 µM (at 50 μM): 64.6%; pIC50 [1]: < 4.30

Question: Which inhibition at 50 µM (at 50 μM) does the source give for `COc1ccc(COc2ccccc2C(=O)Nc2cccnc2)cc1` [Scheme I-5, 2-((4-methoxy)benzyloxy)-N-(pyridin-3-yl) benzamide] here?
Answer: 23%

Question: And the pIC50 [1]?
Answer: < 4.00

Question: With `O=C(Nc1cccnc1)c1ccccc1OCc1cccc(Cl)c1` [Scheme I-7, 2-(3-chloro-benzyloxy)-N-(pyridin-3-yl) benzamide] as the compound, how does the pIC50 read?
Answer: 5.85

Question: What about the inhibition at 5 µM of the same compound?
Answer: 70.6%

Question: Which inhibition at 50 µM (at 50 μM) does the source give for `Cc1cccc(COc2ccccc2C(=O)Nc2cccnc2)c1` [Scheme I-10, 2-((3-methyl)benzyloxy)-N-(pyridin-3-yl) benzamide] here?
Answer: 69.5%

Question: What about the pIC50 [1] of the same compound?
Answer: < 4.60

Question: What does the source list for `Cc1ccccc1COc1ccccc1C(=O)Nc1cccnc1` [Scheme I-11, 2-((2-methyl)benzyloxy)-N-(pyridin-3-yl) benzamide]?
Answer: pIC50: 5.82; inhibition at 5 µM: 71.3%

Question: Which results are given for `O=C(Nc1cccnc1)c1ccccc1OCc1c(Cl)cccc1Cl` [Scheme I-17, 2-((2,6-dichlorophenyl)benzyloxy)-N-(pyridin-3-yl) benzamide]?
Answer: inhibition at 5 µM (at 5 μM): 77.2%; pIC50 [1]: 6.15

Question: How did the pIC50 turn out when `O=C(Nc1cccnc1)c1ccccc1OCc1cccc(Cl)c1F` [Scheme I-18, 2-((2-fluoro-3-chloro)benzyloxy)-N-(pyridin-3-yl) benzamide] was run?
Answer: 5.51

Question: And the inhibition at 5 µM?
Answer: 55.2%

Question: What does the source list for `CCOC(=O)c1ccc(COc2ccccc2C(=O)Nc2cccnc2)cc1` [Scheme I-19, 4-((2-(pyridin-3-ylcarbamoyl)phenoxy)methyl) benzene carboxylic acid ethyl ester]?
Answer: inhibition at 10 µM (at 10 μM): 2.9%; pIC50 [1]: < 4.00

Question: `CCOC(=O)COc1cccc(COc2ccccc2C(=O)Nc2cccnc2)c1` [Scheme I-22] was tested. Which inhibition at 10 µM (at 10 μM) did it give?
Answer: 15.3%

Question: What about the pIC50 [1] of the same compound?
Answer: < 4.00

Question: Which inhibition at 10 µM (at 10 μM) does the source give for `COc1ccccc1COc1ccccc1C(=O)Nc1cccnc1` [Scheme I-24, 2-((2-methoxy)benzyloxy)-N-(pyridin-3-yl) benzamide] here?
Answer: 89.4%

Question: What about the pIC50 [1] of the same compound?
Answer: 6.10

Question: `O=C(Nc1cccnc1)c1ccccc1OCc1c(F)cccc1Cl` [Scheme I-32, 2-((2-chloro-6-fluoro)benzyloxy)-N-(pyridin-3-yl) benzamide] was tested. Which pIC50 did it give?
Answer: 5.82

Question: And the inhibition at 10 µM?
Answer: 82.3%

Question: Which inhibition at 10 µM (at 10 μM) does the source give for `O=C(Nc1cccnc1)c1ccccc1OCc1ccccc1OCCCCCl` [Scheme I-34, 2-(2-(4-chlorobutoxy)benzyloxy)-N-(pyridin-3-yl) benzamide] here?
Answer: 85.5%

Question: And the pIC50 [1]?
Answer: 5.85

Question: What does the source list for `O=C(Nc1cccnc1)c1ccccc1OCc1ccccc1OCCCCCCl` [Scheme I-35, 2-(2-(5-chloro-pentoxy)benzyloxy)-N-(pyridin-3-yl) benzamide]?
Answer: inhibition at 10 µM (at 10 μM): 91.3%; pIC50 [1]: 6.15

Question: For `O=C(Nc1cccnc1)c1ccccc1OCc1ccccc1OCCCCCCCl` [Scheme I-36, 2-(2-(6-Chloro-hexyloxy)benzyloxy)-N-(pyridin-3-yl) benzamide], which inhibition at 10 µM (at 10 μM) is on record?
Answer: 91.5%

Question: What about the pIC50 [1] of the same compound?
Answer: 6.30
